The text below walks through data of ChEMBL document CHEMBL1145503, “Paradoxical effect of Echinocandins across Candida species in vitro: evidence for echinocandin-specific and candida species-related differences” (2007).

Converted amounts (≈) assume the structure as drawn. Numbered stars: 1 amine (or outer) side, 2 acyl side, 3 side chain; on linkers, the order of the positions; unused ones are H or OH. Bridge positions count the residues as written; N and C are the ends. Square brackets hold non-standard residues; d marks the D form. Peptide text beside a SMILES is read from it. * marks the point of attachment. hTyr(3S-OH,4S-OH,3'-OSO3H) = N[C@H](C(=O)O)[C@H](O)[C@@H](O)c1ccc(O)c(OS(=O)(=O)O)c1; pTerphenylCO(4''-OnC5H11) = CCCCCOc1ccc(-c2ccc(-c3ccc(C(=O)*)cc3)cc2)cc1; Orn(4R-OH,5R-OH) = O=C([C@H](C[C@@H](O)[C@@H](O)N[*:3])N[*:1])[*:2]; hTyr(3S-OH,4S-OH) = N[C@H](C(=O)O)[C@H](O)[C@@H](O)c1ccc(O)cc1; Pro(3S-OH,4S-Me) = C[C@H]1CN[C@H](C(=O)O)[C@H]1O; X1 = CCCCCOc1ccc(-c2cc(-c3ccc(C(=O)*)cc3)no2)cc1; Gln(3R-OH) = NC(=O)C[C@@H](O)[C@H](N)C(=O)O; Hyp = O=C(O)[C@@H]1C[C@@H](O)CN1

What all share (assay type): functional
Assay [1] deals with Candida albicans. The assay is described as follows: Antifungal activity against Candida albicans after 48 hrs.
Assay [2] relates to Candida parapsilosis. Description: Antifungal activity against Candida parapsilosis after 48 hrs. As to conditions: Lodderomyces parapsilosis.
Assay [3] concerns Candida tropicalis. Description: Antifungal activity against Candida tropicalis after 48 hrs.
The test system of assay [4] is Pichia kudriavzevii. The assay is described as follows: Antifungal activity against Candida krusei after 48 hrs.
Assay [5] deals with Nakaseomyces glabratus. The assay is described as follows: Antifungal activity against Candida glabrata after 48 hrs.
The subject of assay [6] is Candida albicans. The assay is described as follows: Paradoxical effect in Candida albicans assessed as increase in turbidity at 16 times MIC.
Assay [7] deals with Nakaseomyces glabratus. Description: Paradoxical effect in Candida glabrata assessed as increase in turbidity at 16 times MIC.
Assay [8] deals with Candida parapsilosis. The assay is described as follows: Paradoxical effect in Candida parapsilosis assessed as increase in turbidity at 16 times MIC.
For assay [9], the system named is Candida tropicalis. The assay is described as follows: Paradoxical effect in Candida tropicalis assessed as increase in turbidity at 16 times MIC.
Assay [10] relates to Pichia kudriavzevii. The assay is described as follows: Paradoxical effect in Candida krusei assessed as increase in turbidity at 16 times MIC.
Assay [11] deals with Candida albicans. Description: Paradoxical effect in Candida albicans assessed as increase in turbidity at 64 times MIC.
Assay [12] deals with Candida parapsilosis. The assay is described as follows: Paradoxical effect in Candida parapsilosis assessed as increase in turbidity at 64 times MIC.
Assay [13] has as its system Nakaseomyces glabratus. The assay is described as follows: Paradoxical effect in Candida glabrata assessed as increase in turbidity at 64 times MIC.
Assay [14] has as its system Candida tropicalis. Description: Paradoxical effect in Candida tropicalis assessed as increase in turbidity at 64 times MIC.
Assay [15] deals with Pichia kudriavzevii. Description: Paradoxical effect in Candida krusei assessed as increase in turbidity at 64 times MIC.
For assay [16], the system named is Candida albicans. The assay is described as follows: Paradoxical effect in Candida albicans assessed as increase in turbidity at 96 times MIC.
In assay [17] the test system is Candida parapsilosis. The assay is described as follows: Paradoxical effect in Candida parapsilosis assessed as increase in turbidity at 96 times MIC.
Assay [18] concerns Nakaseomyces glabratus. Description: Paradoxical effect in Candida glabrata assessed as increase in turbidity at 96 times MIC.
Assay [19] concerns Candida tropicalis. The assay is described as follows: Paradoxical effect in Candida tropicalis assessed as increase in turbidity at 96 times MIC.
In assay [20] the test system is Pichia kudriavzevii. Description: Paradoxical effect in Candida krusei assessed as increase in turbidity at 96 times MIC.

As a reminder, the MIC50 is the lowest concentration that inhibits either 50% of growth or 50% of the strains tested, depending on the study. Read a high MIC50 as weaker potency. By MIC90 is commonly meant the lowest concentration that inhibits either 90% of growth or 90% of the strains tested, depending on the study. A lower MIC90 goes with higher susceptibility. On to `CCCCCOc1ccc(-c2ccc(-c3ccc(C(=O)N[C@H]4C[C@@H](O)[C@@H](O)NC(=O)[C@@H]5[C@@H](O)[C@@H](C)CN5C(=O)[C@H]([C@@H](C)O)NC(=O)[C@H]([C@H](O)[C@@H](O)c5ccc(O)cc5)NC(=O)[C@@H]5C[C@@H](O)CN5C(=O)[C@H]([C@@H](C)O)NC4=O)cc3)cc2)cc1` [ANIDULAFUNGIN] ({pTerphenylCO(4''-OnC5H11)}-[Orn(4R-OH,5R-OH)]T[Hyp][hTyr(3S-OH,4S-OH)]T[Pro(3S-OH,4S-Me)]; lactam 1-C), for which the MIC50 with Candida albicans [1] was determined as 0.5 µg/mL (≈ 0.438 µM); against Candida parapsilosis [2] it was 0.5 µg/mL (≈ 0.438 µM); in the assay on Candida tropicalis [3] it was 0.5 µg/mL (≈ 0.438 µM); in the assay on Pichia kudriavzevii [4], 0.25 µg/mL (≈ 0.219 µM); against Nakaseomyces glabratus [5] it was 0.5 µg/mL (≈ 0.438 µM). The MIC90 against Candida albicans [1] is 1 µg/mL (≈ 0.877 µM); with Candida parapsilosis [2], 0.5 µg/mL (≈ 0.438 µM); against Candida tropicalis [3], 1 µg/mL (≈ 0.877 µM); with Pichia kudriavzevii [4] it was 0.25 µg/mL (≈ 0.219 µM); with Nakaseomyces glabratus [5], 0.5 µg/mL (≈ 0.438 µM). Further, the Activity in the assay on Candida albicans [6] was found to be 40%; in the assay with Nakaseomyces glabratus [7], 0%; with Candida parapsilosis [8] it was 0%; in the assay with Candida tropicalis [9] it was 20%; with Pichia kudriavzevii [10], 0%.

As for `CC[C@H](C)C[C@H](C)CCCCCCCCC(=O)N[C@H]1C[C@@H](O)[C@@H](NCCN)NC(=O)[C@@H]2[C@@H](O)CCN2C(=O)[C@H]([C@H](O)CCN)NC(=O)[C@H]([C@H](O)[C@@H](O)c2ccc(O)cc2)NC(=O)[C@@H]2C[C@@H](O)CN2C(=O)[C@H]([C@@H](C)O)NC1=O` [CASPOFUNGIN], the MIC50 in the assay with Candida albicans [1] was determined as 0.125 µg/mL (≈ 0.114 µM); in the assay on Candida parapsilosis [2] it was 0.5 µg/mL (≈ 0.457 µM); in the assay on Candida tropicalis [3] it was 1 µg/mL (≈ 0.915 µM); in the assay on Pichia kudriavzevii [4], 0.06 µg/mL (≈ 0.0549 µM); in the assay with Nakaseomyces glabratus [5], 0.25 µg/mL (≈ 0.229 µM). For the same molecule, the MIC90 in the assay with Candida albicans [1] worked out at 0.25 µg/mL (≈ 0.229 µM); against Candida parapsilosis [2], 1 µg/mL (≈ 0.915 µM); in the assay on Candida tropicalis [3] it was 1 µg/mL (≈ 0.915 µM); against Pichia kudriavzevii [4], 1 µg/mL (≈ 0.915 µM); against Nakaseomyces glabratus [5] it was 0.5 µg/mL (≈ 0.457 µM). Moreover, the Activity was determined as 60% in the assay on Candida albicans [11]; 90% in the assay with Candida parapsilosis [12]; 0% with Nakaseomyces glabratus [13]; 40% in the assay on Candida tropicalis [14]; 10% in the assay with Pichia kudriavzevii [15].

As for `CCCCCOc1ccc(-c2cc(-c3ccc(C(=O)N[C@H]4C[C@@H](O)[C@@H](O)NC(=O)[C@@H]5[C@@H](O)[C@@H](C)CN5C(=O)[C@H]([C@H](O)CC(N)=O)NC(=O)[C@H]([C@H](O)[C@@H](O)c5ccc(O)c(OS(=O)(=O)O)c5)NC(=O)[C@@H]5C[C@@H](O)CN5C(=O)[C@H]([C@@H](C)O)NC4=O)cc3)no2)cc1` [MICAFUNGIN] (X1-[Orn(4R-OH,5R-OH)]T[Hyp][hTyr(3S-OH,4S-OH,3'-OSO3H)][Gln(3R-OH)][Pro(3S-OH,4S-Me)]; lactam 1-C), the MIC50 against Candida albicans [1] came out at 0.25 µg/mL (≈ 0.197 µM); in the assay with Candida parapsilosis [2], 1 µg/mL (≈ 0.787 µM); with Candida tropicalis [3] it was 0.06 µg/mL (≈ 0.0472 µM); with Pichia kudriavzevii [4], 0.5 µg/mL (≈ 0.394 µM); in the assay on Nakaseomyces glabratus [5], 0.06 µg/mL (≈ 0.0472 µM). The MIC90 against Candida albicans [1] was 0.25 µg/mL (≈ 0.197 µM); against Candida parapsilosis [2], 2 µg/mL (≈ 1.57 µM); in the assay on Candida tropicalis [3], 0.06 µg/mL (≈ 0.0472 µM); in the assay on Pichia kudriavzevii [4] it was 0.5 µg/mL (≈ 0.394 µM); against Nakaseomyces glabratus [5] it was 0.125 µg/mL (≈ 0.0984 µM). For the same molecule, the Activity in the assay on Candida albicans [16] is recorded as 0%; in the assay on Candida parapsilosis [17], 0%; in the assay with Nakaseomyces glabratus [18] it was 0%; in the assay with Candida tropicalis [19], 70%; in the assay on Pichia kudriavzevii [20], 60%.
